≈ marks a conversion by molar mass, not a printed value. Read-outs that look alike come from different tables or passages of the source. Numbered stars: 1 amine (or outer) side, 2 acyl side, 3 side chain; on linkers, the order of the positions; unused ones are H or OH. Bridge positions count the residues as written; N and C are the ends. Square brackets hold non-standard residues; d marks the D form. Peptide text beside a SMILES is read from it. * marks the point of attachment. Trp(7-Me) = Cc1cccc2c(C[C@H](N)C(=O)O)c[nH]c12; Sebacoyl = O=C(CCCCCCCCC(=O)[*:2])[*:1]; 2Nal = N[C@@H](Cc1ccc2ccccc2c1)C(=O)O; 3Pal = N[C@@H](Cc1cccnc1)C(=O)O; AEEEA = NCCOCCOCCOCC(=O)O; Thp = NC1(C(=O)O)CCOCC1; Me2NCH2CH2 = CN(C)CC*; Aib = CC(C)(N)C(=O)O; Aoc = NCCCCCCCC(=O)O; Sar = CNCC(=O)O
What was measured:
[1] = Solubility of peptide compounds in buffer formulations (Table 5); type: physicochemical; settings: target 1 mg/ml
Outline: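 Peptide solids, dried from DMSO stock, were taken up at 1 mg/mL in 50 mM HCl pH 1.2, or 50 mM phosphate pH 6.5 or pH 7.4. After 2 h gentle agitation and filtration (0.45 μm), solubility was determined by UHPLC-UV peak area against a DMSO standard of known concentration.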

[2] = Chemical stability (relative purity loss) of peptide compounds in buffer formulations (Table 6); type: physicochemical; settings: 2° C. and 37° C.
Outline: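 Compounds at 0.5 mg/mL in 50 mM HCl pH 1.2, 50 mM phosphate pH 6.5 or pH 7.4, each with acetonitrile (3:1), stored 24 hours at 2° C and 37° C. Purity measured by UHPLC-UV before and after. Stability expressed as relative purity loss.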

[3] = Protease stability in simulated gastric fluids (FaSSGF) (Table 7); type: in vitro ADME; settings: fassgf with pepsin, 60 min, 37° C., read-out: Remaining percentage of peptide compound, FaSSGF 60 (min)
Outline: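 Peptides at 1 μM final were incubated at 37 °C in simulated gastric fluid with pepsin (320 mg per 100 mL SGF concentrate). Samples were quenched with ethanol (0.1% HCOOH) at 0, 60, 120 and 240 min and analysed by LC-MS/MS. Percent remaining is the peak area relative to T0 (100%).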

human IL-23R = biological target: T1, human IL-23R (Homo sapiens, UniProt Q5VWK5); experiment: Inhibition of IL-23 binding to IL-23R as measured by ELISA (Table 8); settings: human IL23 coated 1 μg/ml; human IL-23R-Fc 0.1 μg/ml; 60 min; read-out: Human ELISA IL23/IL23R IC50
T1 sequence (Q5VWK5 24-353 limits assumed): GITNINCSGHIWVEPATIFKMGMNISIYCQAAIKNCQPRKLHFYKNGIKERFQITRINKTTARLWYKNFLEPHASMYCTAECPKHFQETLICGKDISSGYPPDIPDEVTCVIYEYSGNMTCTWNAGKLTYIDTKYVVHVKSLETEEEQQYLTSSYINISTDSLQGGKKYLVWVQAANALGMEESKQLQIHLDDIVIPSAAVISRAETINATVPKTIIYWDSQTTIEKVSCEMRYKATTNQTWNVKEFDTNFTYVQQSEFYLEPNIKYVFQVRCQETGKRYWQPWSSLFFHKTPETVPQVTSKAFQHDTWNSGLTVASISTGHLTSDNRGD
Procedure: Antagonism of compounds for human interleukin-23 receptor inhibitors, was determined by an ELISA assay.
A 384-well plate was coated with 50 μl/well of human IL23 at a final concentration of 1 μg/ml and incubated overnight at 4° C. The wells were washed 3 times with 80 μl wash buffer and blocked with 80 μl blocking buffer for 60 minutes at room temperature and washed again. 20 μl of serially diluted test peptides was added to each well and subsequently 20 μl of recombinant human IL-23R-Fc chimera at final concentration of 0.1 μg/ml. The plate was incubated for 60 minutes at room temperature. After the wells were washed, bound IL23R-Fc was detected with goat anti-hu-IgG1-HRP antibody. Signals were visualized with QUANTABLU fluorogenic peroxidase substrate.

[4] = Buffer pH 1.1 (head; method: 50 mM HCl pH 1.2), 2 h agitation, read-out: Solubility, Buffer pH 1.1
[5] = aqueous buffer, 50 mM phosphate buffer pH 6.5, 2 h agitation, read-out: Solubility, Buffer pH 6.5
[6] = aqueous buffer, 50 mM phosphate buffer pH 7.4, 2 h agitation, read-out: Solubility, Buffer pH 7.4
[7] = 50 mM phosphate buffer pH 6.5 + acetonitrile (3:1), read-out: Chemical stability (relative purity loss), Buffer pH 6.5
[8] = 50 mM phosphate buffer pH 7.4 + acetonitrile (3:1), read-out: Chemical stability (relative purity loss), Buffer pH 7.4
[9] = 50 mm hcl + acetonitrile, Buffer pH 1.1 (head; method: 50 mM HCl pH 1.2 + acetonitrile 3:1), read-out: Chemical stability (relative purity loss), Buffer pH 1.1

solubility at 2 h [1, 4] [µg/mL]	solubility at 2 h [1, 5] [µg/mL]	solubility at 2 h [1, 6] [µg/mL]	degraded at 24 h [2, 7] [%]	degraded at 24 h [2, 8] [%]	degraded at 24 h [2, 9] [%]	remaining at 1 h, 1 µM [3] [%]	IC50 (human IL-23R) [nM]	Structure (SMILES)
≥ 1200	≥ 1280	≥ 1270	0	0	8.6	100	0.46	Cc1cccc2c(C[C@@H]3NC(=O)COCCOCCOCCNC(=O)CC[C@@H](C(=O)N[C@@H](CC(N)=O)C(=O)N[C@@H](Cc4cccnc4)C(=O)N(C)CC(N)=O)NC(=O)C(C)(C)NC(=O)[C@H](Cc4ccc5ccccc5c4)NC(=O)[C@H](Cc4ccc(OCCN(C)C)cc4)NC(=O)C4(CCOCC4)NC(=O)[C@H](CCC(N)=O)NC3=O)c[nH]c12 [compound 14] ([AEEEA][Trp(7-Me)]Q[Thp]Y(Me2NCH2CH2)[2Nal][Aib]EN[3Pal][Sar]-NH2; lactam N-8)
≥ 940	330 (≈ 204 µM)	500 (≈ 309 µM)	0	0	7.9	98	0.62	Cc1cccc2c(C[C@@H]3NC(=O)CCCCCCCCC(=O)NCCCC[C@@H](C(=O)N[C@@H](CC(N)=O)C(=O)N[C@@H](Cc4cccnc4)C(=O)N(C)CC(N)=O)NC(=O)C(C)(C)NC(=O)[C@H](Cc4ccc5ccccc5c4)NC(=O)[C@H](Cc4ccc(OCCN(C)C)cc4)NC(=O)C4(CCOCC4)NC(=O)[C@H](CCC(N)=O)NC3=O)c[nH]c12 [compound 11] ([Trp(7-Me)]Q[Thp]Y(Me2NCH2CH2)[2Nal][Aib]KN[3Pal][Sar]-NH2; linker N-7 via Sebacoyl)
≥ 1160	260 (≈ 167 µM)	80 (≈ 51.3 µM)	0	0	5.6	59	0.94	Cc1cccc2c(C[C@@H]3NC(=O)CCCCCCCNC(=O)CC[C@@H](C(=O)N[C@@H](CC(N)=O)C(=O)N[C@@H](Cc4cccnc4)C(=O)N(C)CC(N)=O)NC(=O)C(C)(C)NC(=O)[C@H](Cc4ccc5ccccc5c4)NC(=O)[C@H](Cc4ccc(OCCN(C)C)cc4)NC(=O)C4(CCOCC4)NC(=O)[C@H](CC(C)C)NC3=O)c[nH]c12 [compound 9] ([Aoc][Trp(7-Me)]L[Thp]Y(Me2NCH2CH2)[2Nal][Aib]EN[3Pal][Sar]-NH2; lactam N-8)
